Test results as given in ChEMBL document CHEMBL2331451, “Discovery of (1R,2R)-N-(4-(6-isopropylpyridin-2-yl)-3-(2-methyl-2H-indazol-5-yl)isothiazol-5-yl)-2-methylcyclopropanecarboxamide, a potent and orally efficacious mGlu5 receptor negative allosteric modulator” (Bioorg Med Chem Lett, 2013).
Each block holds one compound with its values, some of them ahead of it. Calls of active or inactive are those of the source. The calls are words filed in the database; no cut-off is given here.

Assays:
Homo sapiens = species on record: Homo sapiens; experiment: Selectivity ratio of IC50 for human recombinant mGlu1 receptor to IC50 for human recombinant mGlu5 receptor
[1] = molecular target: Metabotropic glutamate receptor 1 (Homo sapiens, UniProt Q13255); experiment: Negative allosteric modulation of human recombinant mGlu1 receptor expressed in Syrian hamster AV12 cells assessed as receptor-mediated changes in intracellular calcium concentration by FLIPR assay; assay type: functional, cell-based
Chain of Metabotropic glutamate receptor 1 (Q13255 whole entry): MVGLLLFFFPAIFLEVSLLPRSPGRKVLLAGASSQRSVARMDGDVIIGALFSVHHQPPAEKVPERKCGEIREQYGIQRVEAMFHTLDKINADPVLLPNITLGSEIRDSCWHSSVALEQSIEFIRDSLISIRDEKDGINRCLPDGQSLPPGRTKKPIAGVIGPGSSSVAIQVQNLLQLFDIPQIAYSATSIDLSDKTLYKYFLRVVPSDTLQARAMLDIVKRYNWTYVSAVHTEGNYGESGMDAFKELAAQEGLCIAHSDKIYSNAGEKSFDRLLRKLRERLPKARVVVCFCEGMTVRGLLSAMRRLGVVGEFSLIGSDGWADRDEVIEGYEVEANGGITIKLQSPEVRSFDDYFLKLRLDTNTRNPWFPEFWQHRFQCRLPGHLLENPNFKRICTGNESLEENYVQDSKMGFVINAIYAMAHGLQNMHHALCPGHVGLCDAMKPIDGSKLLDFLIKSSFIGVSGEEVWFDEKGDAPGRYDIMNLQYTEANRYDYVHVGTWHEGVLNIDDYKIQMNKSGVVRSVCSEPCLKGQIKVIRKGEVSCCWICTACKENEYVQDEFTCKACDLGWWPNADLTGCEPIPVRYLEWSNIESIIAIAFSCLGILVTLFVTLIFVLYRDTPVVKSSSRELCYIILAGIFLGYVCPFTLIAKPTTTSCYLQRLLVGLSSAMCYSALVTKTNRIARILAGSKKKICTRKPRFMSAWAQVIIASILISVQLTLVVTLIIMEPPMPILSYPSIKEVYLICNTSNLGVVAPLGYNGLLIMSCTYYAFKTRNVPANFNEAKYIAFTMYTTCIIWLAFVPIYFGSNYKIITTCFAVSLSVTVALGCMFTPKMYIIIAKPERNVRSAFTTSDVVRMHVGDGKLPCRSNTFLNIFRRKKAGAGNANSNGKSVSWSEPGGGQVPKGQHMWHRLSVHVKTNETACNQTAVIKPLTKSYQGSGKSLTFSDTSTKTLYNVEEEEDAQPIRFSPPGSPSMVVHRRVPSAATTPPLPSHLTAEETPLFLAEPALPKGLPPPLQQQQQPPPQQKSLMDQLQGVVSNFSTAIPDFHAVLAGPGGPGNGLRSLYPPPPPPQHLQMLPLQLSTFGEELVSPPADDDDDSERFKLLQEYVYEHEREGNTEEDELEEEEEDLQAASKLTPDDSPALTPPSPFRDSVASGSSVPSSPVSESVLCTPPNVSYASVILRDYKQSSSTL

[2] = molecular target: Metabotropic glutamate receptor 5 (Homo sapiens, UniProt P41594); experiment: Negative allosteric modulation of human recombinant mGlu5 receptor expressed in Syrian hamster AV12 cells assessed as receptor-mediated changes in intracellular calcium concentration by FLIPR assay; assay type: functional, cell-based
Chain of Metabotropic glutamate receptor 5 (Homo sapiens, UniProt P41594) (P41594 whole entry): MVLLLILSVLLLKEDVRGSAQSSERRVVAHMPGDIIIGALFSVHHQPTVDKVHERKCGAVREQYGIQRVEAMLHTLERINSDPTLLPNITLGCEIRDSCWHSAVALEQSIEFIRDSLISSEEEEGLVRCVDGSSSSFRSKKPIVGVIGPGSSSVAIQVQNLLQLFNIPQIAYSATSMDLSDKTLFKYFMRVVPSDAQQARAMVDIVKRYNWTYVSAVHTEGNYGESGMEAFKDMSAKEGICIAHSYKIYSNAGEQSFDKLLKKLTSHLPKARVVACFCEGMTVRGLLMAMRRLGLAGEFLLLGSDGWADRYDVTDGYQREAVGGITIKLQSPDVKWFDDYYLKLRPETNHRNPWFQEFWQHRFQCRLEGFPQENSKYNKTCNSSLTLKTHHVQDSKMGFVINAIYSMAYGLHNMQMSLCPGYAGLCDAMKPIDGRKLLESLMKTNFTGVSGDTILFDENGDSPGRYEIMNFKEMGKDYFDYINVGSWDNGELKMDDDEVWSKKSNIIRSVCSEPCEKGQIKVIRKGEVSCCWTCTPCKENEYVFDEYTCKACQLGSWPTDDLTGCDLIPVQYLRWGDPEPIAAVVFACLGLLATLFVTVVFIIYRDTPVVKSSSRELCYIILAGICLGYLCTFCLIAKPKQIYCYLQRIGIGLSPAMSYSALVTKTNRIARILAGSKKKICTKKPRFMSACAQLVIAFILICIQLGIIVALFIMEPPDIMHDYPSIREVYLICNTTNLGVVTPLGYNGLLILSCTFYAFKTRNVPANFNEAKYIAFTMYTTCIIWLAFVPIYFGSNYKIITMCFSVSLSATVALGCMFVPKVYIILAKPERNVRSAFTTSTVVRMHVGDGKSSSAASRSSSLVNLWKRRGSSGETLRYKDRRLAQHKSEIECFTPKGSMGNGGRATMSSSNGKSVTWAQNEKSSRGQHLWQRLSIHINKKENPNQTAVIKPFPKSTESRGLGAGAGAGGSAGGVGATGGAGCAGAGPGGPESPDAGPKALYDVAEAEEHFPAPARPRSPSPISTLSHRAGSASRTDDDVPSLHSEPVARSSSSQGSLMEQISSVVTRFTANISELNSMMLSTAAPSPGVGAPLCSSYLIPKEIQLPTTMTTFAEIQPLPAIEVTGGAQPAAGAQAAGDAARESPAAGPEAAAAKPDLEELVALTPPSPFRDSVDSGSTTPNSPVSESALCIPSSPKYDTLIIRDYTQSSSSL

Rattus norvegicus [3] = species on record: Rattus norvegicus; experiment: Neurotoxicity in Harlan Sprague-Dawley rat assessed as minimal motor impairment up to 4 hrs by rotorod test; assay type: toxicity, organism-based; conditions: in vivo
Rattus norvegicus [4] = experiment: Analgesic activity in po dosed fasted Harlan Sprague-Dawley rat assessed as inhibition of late phase of formalin- induced paw-licking pain behavior; assay type: functional
[5] = Drug uptake in Harlan Sprague-Dawley rat brain at 10 mg/kg, po after 24 hrs; assay type: ADME, organism-based; parameters: dose 10 mg/kg, route oral; conditions: read-out: Drug uptake
[6] = Drug uptake in Harlan Sprague-Dawley rat brain at 10 mg/kg, po after 4 hrs; assay type: ADME, organism-based; parameters: dose 10 mg/kg, route oral; conditions: read-out: Drug uptake
[7] = Drug uptake in Harlan Sprague-Dawley rat brain at 10 mg/kg, po after 6 hrs; assay type: ADME, organism-based; parameters: dose 10 mg/kg, route oral; conditions: read-out: Drug uptake
[8] = Drug uptake in Harlan Sprague-Dawley rat brain at 10 mg/kg, po after 2 hrs; assay type: ADME, organism-based; parameters: dose 10 mg/kg, route oral; conditions: read-out: Drug uptake
[9] = Drug uptake in Harlan Sprague-Dawley rat brain at 10 mg/kg, po after 0.5 hrs; assay type: ADME, organism-based; parameters: dose 10 mg/kg, route oral; conditions: read-out: Drug uptake
[10] = Drug uptake in Harlan Sprague-Dawley rat brain at 10 mg/kg, po after 1 hr; assay type: ADME, organism-based; parameters: dose 10 mg/kg, route oral; conditions: read-out: Drug uptake
Rattus norvegicus [11] = experiment: Ex vivo receptor occupancy of mGlu5 receptor in Harlan Sprague-Dawley rat brain at 10 mg/kg, po after 24 hrs; assay type: functional
Rattus norvegicus [12] = experiment: Ex vivo receptor occupancy of mGlu5 receptor in Harlan Sprague-Dawley rat brain at 10 mg/kg, po after 6 hrs; assay type: functional
Rattus norvegicus [13] = experiment: Ex vivo receptor occupancy of mGlu5 receptor in Harlan Sprague-Dawley rat brain at 10 mg/kg, po after 4 hrs; assay type: functional
Rattus norvegicus [14] = experiment: Ex vivo receptor occupancy of mGlu5 receptor in Harlan Sprague-Dawley rat brain at 10 mg/kg, po after 2 hrs; assay type: functional
Rattus norvegicus [15] = experiment: Ex vivo receptor occupancy of mGlu5 receptor in Harlan Sprague-Dawley rat brain at 10 mg/kg, po after 1 hr; assay type: functional
Rattus norvegicus [16] = experiment: Ex vivo receptor occupancy of mGlu5 receptor in Harlan Sprague-Dawley rat brain at 10 mg/kg, po after 0.5 hrs; assay type: functional
Rattus norvegicus [17] = experiment: Ex vivo receptor occupancy of mGlu1 receptor in Harlan Sprague-Dawley rat brain up to 10 mg/kg, po; assay type: functional, organism-based; parameters: dose 10 mg/kg
Rattus norvegicus [18] = experiment: Ex vivo receptor occupancy of mGlu5 receptor in po dosed Harlan Sprague-Dawley rat brain; assay type: functional
[19] = Bioavailability in Harlan Sprague-Dawley rat at 1.5 mg/kg, po and 1 mg/kg, iv; assay type: ADME, organism-based; conditions: in vivo
[20] = Clearance in Harlan Sprague-Dawley rat at 1.5 mg/kg, po and 1 mg/kg, iv; assay type: ADME, organism-based; conditions: in vivo
[21] = Volume of distribution in Harlan Sprague-Dawley rat at 1.5 mg/kg, po and 1 mg/kg, iv; assay type: ADME, organism-based; conditions: in vivo
[22] = Elimination half life in Harlan Sprague-Dawley rat at 1.5 mg/kg, po; assay type: ADME, organism-based; parameters: dose 1.5 mg/kg, route oral; conditions: in vivo, read-out: beta t1/2 (converted)
[23] = Elimination half life in Harlan Sprague-Dawley rat at 1 mg/kg, iv; assay type: ADME, organism-based; parameters: dose 1 mg/kg, route intravenous; conditions: in vivo, read-out: beta t1/2 (converted)
[24] = Tmax in Harlan Sprague-Dawley rat at 1.5 mg/kg, po; assay type: ADME, organism-based; parameters: dose 1.5 mg/kg, route oral; conditions: in vivo
[25] = AUC (0 to 24 hrs) in Harlan Sprague-Dawley rat at 1.5 mg/kg, po; assay type: ADME, organism-based; parameters: time < 24 hr, dose 1.5 mg/kg, route oral; conditions: plasma
[26] = Cmax in Harlan Sprague-Dawley rat at 1.5 mg/kg, po; assay type: ADME, organism-based; parameters: dose 1.5 mg/kg, route oral; conditions: in vivo
[27] = molecular target: T1, 5-hydroxytryptamine receptor 2B (Homo sapiens, UniProt P41595); experiment: Binding affinity to 5HT2B receptor (unknown origin)
T1 sequence (P41595 whole entry): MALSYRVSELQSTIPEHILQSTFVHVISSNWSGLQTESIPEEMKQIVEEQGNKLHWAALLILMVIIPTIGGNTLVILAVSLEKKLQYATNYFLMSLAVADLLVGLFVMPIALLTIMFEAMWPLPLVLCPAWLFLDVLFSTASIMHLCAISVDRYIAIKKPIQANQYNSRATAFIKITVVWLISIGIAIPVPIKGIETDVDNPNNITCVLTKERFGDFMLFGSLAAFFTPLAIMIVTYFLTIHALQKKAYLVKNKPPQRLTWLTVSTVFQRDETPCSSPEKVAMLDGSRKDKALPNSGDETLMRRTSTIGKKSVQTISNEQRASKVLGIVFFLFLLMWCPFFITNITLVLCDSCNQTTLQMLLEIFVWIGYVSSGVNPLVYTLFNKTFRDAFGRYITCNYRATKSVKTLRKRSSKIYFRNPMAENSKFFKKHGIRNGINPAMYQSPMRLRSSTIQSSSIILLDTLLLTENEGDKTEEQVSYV

[28] = molecular target: Metabotropic glutamate receptor 5 (Rattus norvegicus, UniProt P31424); experiment: Negative allosteric modulation of rat mGlu5 receptor
Chain of Metabotropic glutamate receptor 5 (Rattus norvegicus, UniProt P31424) (P31424 whole entry): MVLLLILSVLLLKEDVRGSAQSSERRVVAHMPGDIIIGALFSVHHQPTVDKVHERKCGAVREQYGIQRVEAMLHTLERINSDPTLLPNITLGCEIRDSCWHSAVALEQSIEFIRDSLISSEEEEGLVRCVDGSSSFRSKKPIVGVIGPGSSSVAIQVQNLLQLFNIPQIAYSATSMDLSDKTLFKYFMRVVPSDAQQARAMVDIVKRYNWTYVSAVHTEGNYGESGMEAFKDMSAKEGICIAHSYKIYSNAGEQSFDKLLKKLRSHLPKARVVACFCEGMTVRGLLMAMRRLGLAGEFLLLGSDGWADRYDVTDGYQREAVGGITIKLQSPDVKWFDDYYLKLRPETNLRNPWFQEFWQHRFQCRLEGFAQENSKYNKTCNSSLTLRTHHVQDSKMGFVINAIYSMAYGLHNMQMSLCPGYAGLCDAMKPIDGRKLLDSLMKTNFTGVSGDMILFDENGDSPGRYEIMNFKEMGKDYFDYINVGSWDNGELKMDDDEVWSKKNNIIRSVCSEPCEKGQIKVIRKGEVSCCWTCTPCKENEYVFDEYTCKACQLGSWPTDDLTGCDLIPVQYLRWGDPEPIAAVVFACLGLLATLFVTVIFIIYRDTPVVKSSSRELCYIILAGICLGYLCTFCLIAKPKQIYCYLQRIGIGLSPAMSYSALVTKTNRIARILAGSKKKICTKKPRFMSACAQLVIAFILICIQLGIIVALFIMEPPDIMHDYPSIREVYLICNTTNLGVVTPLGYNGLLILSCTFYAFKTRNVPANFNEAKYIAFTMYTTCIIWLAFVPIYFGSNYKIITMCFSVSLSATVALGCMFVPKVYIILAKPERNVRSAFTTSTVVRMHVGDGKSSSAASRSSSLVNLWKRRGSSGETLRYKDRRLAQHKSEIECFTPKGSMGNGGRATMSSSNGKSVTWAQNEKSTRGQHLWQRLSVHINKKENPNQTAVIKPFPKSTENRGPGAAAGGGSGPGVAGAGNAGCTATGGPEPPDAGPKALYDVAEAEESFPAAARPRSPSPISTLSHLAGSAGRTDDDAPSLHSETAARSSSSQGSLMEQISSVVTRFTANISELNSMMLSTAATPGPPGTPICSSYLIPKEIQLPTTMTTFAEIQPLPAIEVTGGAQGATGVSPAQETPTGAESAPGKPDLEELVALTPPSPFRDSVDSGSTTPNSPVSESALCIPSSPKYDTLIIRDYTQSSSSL

[29] = molecular target: T1, 5-hydroxytryptamine receptor 2B; conditions: 1 uM
Description: Inhibition of 5HT2B receptor (unknown origin) at 1 uM

Ratio IC50 (Homo sapiens): 28
IC50 [1]: 279 nM
IC50 [2]: 10 nM
SMILES: CCc1cccc(-c2c(-c3ccc4nn(C)cc4c3)nsc2NC(=O)[C@@H]2C[C@H]2C)n1

Ratio IC50 (Homo sapiens): 5
IC50 [1]: 190 nM
IC50 [2]: 36 nM
SMILES: COc1cccc(-c2c(-c3ccc4nn(C)cc4c3)nsc2NC(=O)[C@@H]2C[C@H]2C)n1

Ratio IC50 (Homo sapiens): 477
IC50 [1]: 9540 nM
IC50 [2]: 20 nM
SMILES: C[C@@H]1C[C@H]1C(=O)Nc1snc(-c2ccc3nn(C)cc3c2)c1-c1cccc(N(C)C)n1

Ratio IC50 (Homo sapiens): 10
IC50 [1]: 397 nM
IC50 [2]: 39 nM
SMILES: CC(C)c1cccc(-c2c(-c3ccc4nn(C)cc4c3)nsc2NC(=O)C2CC2)n1

Ratio IC50 (Homo sapiens): 26
IC50 [1]: 1590 nM
IC50 [2]: 62 nM
SMILES: CNc1cccc(-c2c(-c3ccc4nn(C)cc4c3)nsc2NC(=O)[C@@H]2C[C@H]2C)n1

Ratio IC50 (Homo sapiens): > 20
SMILES: COc1ccc(-c2nsc(NC(=O)[C@@H]3C[C@H]3C)c2C)cc1

Ratio IC50 (Homo sapiens): 33
IC50 [1]: 891 nM
IC50 [2]: 27 nM
SMILES: C[C@@H]1C[C@H]1C(=O)Nc1snc(-c2ccc3nn(C)cc3c2)c1-c1cccc(C2CCCC2)n1

Ratio IC50 (Homo sapiens): 13
IC50 [1]: 687 nM
IC50 [2]: 54 nM
SMILES: C[C@@H]1C[C@H]1C(=O)Nc1snc(-c2ccc3nn(C)cc3c2)c1-c1cccc(C2CCC2)n1

concentration at 24 h [5]: 2340 nM
concentration at 4 h [6]: 2590 nM
concentration at 6 h [7]: 2980 nM
concentration at 2 h [8]: 2850 nM
concentration at 0.5 h [9]: 1240 nM
concentration at 1 h [10]: 2230 nM
Activity (Rattus norvegicus [18]): Dose-dependent effect
bioavailability [19]: 56.5%
clearance [20]: 8.4 mL/min/kg
Vd [21]: 2.7 L/kg
half-life [22]: 4.6 h
half-life [23]: 4.9 h
Tmax [24]: 2 h
AUC(0-t) at 24 h [25]: 1570 ng·h/mL
Cmax [26]: 255 ng/mL
Ki [27]: 3160 nM
IC50 [28]: 167 nM
Ratio IC50 (Homo sapiens): 34
IC50 [1]: 644 nM
IC50 [2]: 19 nM
inhibition [29]: 56%
SMILES: CC(C)c1cccc(-c2c(-c3ccc4nn(C)cc4c3)nsc2NC(=O)[C@@H]2C[C@H]2C)n1.Cl
Activity (Rattus norvegicus [3]): Non-toxic
ED50 (Rattus norvegicus [4]): 25.5 mg/kg
inhibition (Rattus norvegicus [4]): Dose-dependent effect
Activity (Rattus norvegicus [11]): 58.9%
Activity (Rattus norvegicus [12]): 62.5%
Activity (Rattus norvegicus [13]): 67.7%
Activity (Rattus norvegicus [14]): 74.3%
Activity (Rattus norvegicus [15]): 57.8%
Activity (Rattus norvegicus [16]): 37.8%
Activity (Rattus norvegicus [17]): inactive
ED50 (Rattus norvegicus [18]): 2.1 mg/kg

Ratio IC50 (Homo sapiens): 102
IC50 [1]: 4570 nM
IC50 [2]: 45 nM
SMILES: CC(C)c1cccc(-c2c(-c3ccc4n[nH]cc4c3)nsc2NC(=O)[C@@H]2C[C@H]2C)n1

Ratio IC50 (Homo sapiens): 26
IC50 [1]: 1300 nM
IC50 [2]: 50 nM
SMILES: C[C@@H]1C[C@H]1C(=O)Nc1snc(-c2ccc3nn(C)cc3c2)c1-c1cccc(CF)n1

Ratio IC50 (Homo sapiens): 49
IC50 [1]: 2210 nM
IC50 [2]: 45 nM
SMILES: Cc1cccc(-c2c(-c3ccc4nn(C)cc4c3)nsc2NC(=O)[C@@H]2C[C@H]2C)n1

Ratio IC50 (Homo sapiens): 13
IC50 [1]: 1020 nM
IC50 [2]: 81 nM
SMILES: C[C@@H]1C[C@H]1C(=O)Nc1snc(-c2ccc3nn(C)cc3c2)c1-c1cccc(C(F)F)n1

Ratio IC50 (Homo sapiens): > 357
IC50 [1]: > 12500 nM
IC50 [2]: 35 nM
SMILES: CC[C@@H]1C[C@H]1C(=O)Nc1snc(-c2ccc3nn(C)cc3c2)c1-c1cccc(N(C)C)n1

Ratio IC50 (Homo sapiens): 20
IC50 [1]: 409 nM
IC50 [2]: 20 nM
SMILES: CCCc1cccc(-c2c(-c3ccc4nn(C)cc4c3)nsc2NC(=O)[C@@H]2C[C@H]2C)n1

Ratio IC50 (Homo sapiens): 8
IC50 [1]: 238 nM
IC50 [2]: 29 nM
SMILES: C[C@@H]1C[C@H]1C(=O)Nc1snc(-c2ccc3nn(C)cc3c2)c1-c1ccccn1

Ratio IC50 (Homo sapiens): 25
IC50 [1]: 735 nM
IC50 [2]: 30 nM
SMILES: C[C@@H]1C[C@H]1C(=O)Nc1snc(-c2ccc3nn(C)cc3c2)c1-c1cccc(C2CC2)n1

Ratio IC50 (Homo sapiens): 86
IC50 [1]: 3110 nM
IC50 [2]: 36 nM
SMILES: CCc1cccc(-c2c(-c3ccc4n[nH]cc4c3)nsc2NC(=O)[C@@H]2C[C@H]2C)n1

Ratio IC50 (Homo sapiens): > 266
IC50 [1]: > 12500 nM
IC50 [2]: 47 nM
SMILES: C[C@@H]1C[C@H]1C(=O)Nc1snc(-c2ccc3n[nH]cc3c2)c1-c1cccc(N(C)C)n1
